From patent US8889704B2 (Array BioPharma Inc., priority 2011, dated 2014)
Counter-ions that a name gives are not always drawn.

How the values were obtained:
Assay type in all cases: biochemical
PIM-1 = PIM-1 (Homo sapiens, UniProt P11309); test: Enzyme PIM-1 Assay ([33P]ATP incorporation into PIM2tide, filter plate); settings: averaged IC50; 35 μM ATP, 7.5 μM PIM2tide, 0.25 nM PIM-1, 60 min at 22° C.
Procedure, shortened: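 Radiometric assay: 0.25 nM PIM-1 phosphorylates 7.5 μM PIM2tide with 35 μM [γ-33P]ATP in 20 mM MOPS pH 7.4, 10 mM MgCl2, 1 mM DTT, 0.005% Tween-20, 60 min at 22 °C. Product captured on P81 filters, scintillation counted; 10-point 3-fold curve from 10 μM top, 2% DMSO, IC50 by 4-parameter logistic fit of POC.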

[1] = biological target: T1, GST-tagged recombinant full-length human Pim-2 (Homo sapiens, UniProt Q9P1W9); test: PIM-2 Assay (as Example A); settings: averaged IC50; 4 μM ATP, 1.0 μM PIM2tide, 1.5 nM Pim-2
T1 construct: GST-tagged recombinant full-length human Pim-2; GST
T1 sequence (Q9P1W9 whole entry): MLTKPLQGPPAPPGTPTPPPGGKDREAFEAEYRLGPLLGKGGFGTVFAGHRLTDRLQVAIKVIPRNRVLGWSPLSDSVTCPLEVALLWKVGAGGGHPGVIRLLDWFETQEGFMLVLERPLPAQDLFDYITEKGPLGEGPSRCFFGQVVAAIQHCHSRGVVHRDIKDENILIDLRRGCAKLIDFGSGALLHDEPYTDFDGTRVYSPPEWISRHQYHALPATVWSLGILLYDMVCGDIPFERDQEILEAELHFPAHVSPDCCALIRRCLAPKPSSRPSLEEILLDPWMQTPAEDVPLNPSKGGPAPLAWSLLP
Procedure, shortened: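 Radiometric filter-binding assay: GST-tagged full-length human Pim-2 (1.5 nM) phosphorylates 1.0 μM PIM2tide with 4 μM [γ-33P]ATP for 60 min at 22 °C in pH 7.4 MOPS buffer, 2% DMSO. 10-point 3-fold dilutions from 10 μM top dose; IC50 from 4-parameter fit of percent of control.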

recombinant rat PIM-3 = recombinant rat PIM-3 (Rattus norvegicus, UniProt O70444); test: PIM-3 Assay (as Example A); settings: averaged IC50; 30 μM ATP, 3.75 μM PIM2tide, 0.5 nM PIM-3
Procedure, shortened: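 Recombinant rat PIM-3 (0.5 nM) with 3.75 μM PIM2tide and 30 μM [γ-33P]ATP in MOPS pH 7.4 buffer, 60 min at 22 °C; labelled peptide captured on phosphocellulose filters and counted by scintillation. 10-point curve (top dose 10 μM, 2% DMSO); IC50 from 4-parameter fit of percent of control.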

Chain of PIM-1 (P11309 whole entry, species assumed): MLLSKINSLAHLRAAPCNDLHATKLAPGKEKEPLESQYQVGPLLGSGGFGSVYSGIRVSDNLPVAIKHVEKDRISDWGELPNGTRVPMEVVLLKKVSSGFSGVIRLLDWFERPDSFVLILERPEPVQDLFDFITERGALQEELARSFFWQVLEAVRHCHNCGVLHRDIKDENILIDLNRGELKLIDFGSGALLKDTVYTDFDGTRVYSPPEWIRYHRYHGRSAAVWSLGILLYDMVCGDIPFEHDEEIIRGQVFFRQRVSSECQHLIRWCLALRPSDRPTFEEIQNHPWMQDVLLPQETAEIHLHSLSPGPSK

| SMILES | IC50 (PIM-1) | IC50 [1] | IC50 (recombinant rat PIM-3) |
| --- | --- | --- | --- |
| N[C@H]1CCN([C@H](c2ccc3nnc(-c4ccc5ccc(SCCO)cc5n4)n3c2)C(F)(F)F)C1 [Example 267, 2-(2-(6-((R)-1-((S)-3-aminopyrrolidin-1-yl)-2,2,2-trifluoroethyl)-[1,2,4]triazolo[4,3-a]pyridin-3-yl)quinolin-7-ylthio)ethanol hydrochloride] | 0.35 nM | 350 nM | 0.7 nM |
| N[C@@H]1[C@H]2CN(C(c3ccc4nnc(-c5ccc6cccc(OCC7CC7)c6n5)n4c3)C(F)(F)F)C[C@@H]12 (stereo partly drawn) [Example 26, (1R,5S,6S)-3-(1-(3-(8-(cyclopropylmethoxy)quinolin-2-yl)-[1,2,4]triazolo[4,3-a]pyridin-6-yl)-2,2,2-trifluoroethyl)-3-azabicyclo[3.1.0]hexanesan-6-amine dihydrochloride] | 2.12 nM | 796 nM | > 100 nM |
| CC(C)C(=O)Nc1ccc2ccc(-c3nnc4ccc(C(N5CC[C@H](N)C5)C(F)(F)F)cn34)nc2c1 (stereo partly drawn) [Example 44, N-(2-(6-(1-((S)-3-aminopyrrolidin-1-yl)-2,2,2-trifluoroethyl)-[1,2,4]triazolo[4,3-a]pyridin-3-yl)quinolin-7-yl)isobutyramide] | 0.13 nM | 29 nM | 0.2 nM |
| CCOc1cc2nc(-c3nnc4ccc([C@H](N5CC[C@H](N)C5)C(F)(F)F)cn34)ccc2cc1F [Example 249, (S)-1-((S)-1-(3-(7-ethoxy-6-fluoroquinolin-2-yl)-[1,2,4]triazolo[4,3-a]pyridin-6-yl)-2,2,2-trifluoroethyl)pyrrolidin-3-amine dihydrochloride] | 0.51 nM | 83 nM | 0.8 nM |
| CC(C)(O)COc1cccc2ccc(-c3nnc4ccc([C@@H](N5CC[C@@](C)(N)C5)C(F)(F)F)cn34)nc12 [Example 272, 1-(2-(6-((R)-1-((R)-3-amino-3-methylpyrrolidin-1-yl)-2,2,2-trifluoroethyl)-[1,2,4]triazolo[4,3-a]pyridin-3-yl)quinolin-8-yloxy)-2-methylpropan-2-ol dihydrochloride] | 0.24 nM | 124 nM | 0.5 nM |
| CC(C)Oc1cccc2ccc(-c3nnc4ccc([C@@H](N5C[C@@H](N)[C@@H](O)C5)C(F)(F)F)cn34)nc12 [Example 129, (3S,4R)-4-amino-1-((R)-2,2,2-trifluoro-1-(3-(8-isopropoxyquinolin-2-yl)-[1,2,4]triazolo[4,3-a]pyridin-6-yl)ethyl)pyrrolidin-3-ol dihydrochloride] | 1.6 nM | 621 nM | 7.7 nM |
| CCOc1ccc2ccc(-c3nnc4ccc([C@H](N5CCC6(CCCN6)C5)C(F)(F)F)cn34)nc2c1 (stereo partly drawn) [Example 258, 7-ethoxy-2-(6-((1S)-2,2,2-trifluoro-1-(1,7-diazaspiro[4.4]nonan-7-yl)ethyl)-[1,2,4]triazolo[4,3-a]pyridin-3-yl)quinoline dihydrochloride] | 2.05 nM | 531 nM | 1.9 nM |
| N[C@H]1CCN([C@@H](c2ccc3nnc(-c4ccc5cccc(OCC6CC6)c5n4)n3c2)C(F)(F)F)C1 (single isomer, unassigned) [Example 10, dihydrochloride] | 1.84 nM | 306 nM | 12 nM |
| CO[C@H](C)COc1ccc2ccc(-c3nnc4ccc([C@@H](N5CC[C@H](N)C5)C(F)(F)F)cn34)nc2c1 [Example 277, (S)-1-((R)-2,2,2-trifluoro-1-(3-(7-((R)-2-methoxypropoxy)quinolin-2-yl)-[1,2,4]triazolo[4,3-a]pyridin-6-yl)ethyl)pyrrolidin-3-amine dihydrochloride] | 0.28 nM | 231 nM | 0.7 nM |
| CN[C@H]1CCN([C@H](c2ccc3nnc(-c4ccc5ccc(C(=O)NC(C)(C)C)cc5n4)n3c2)C(F)(F)F)C1 [Example 58, N,N-tert-butyl-2-(6-((R)-2,2,2-trifluoro-1-((S)-3-(methylamino)pyrrolidin-1-yl)ethyl)-[1,2,4]triazolo[4,3-a]pyridin-3-yl)quinoline-7-carboxamide] | 0.6 nM | > 100 nM | 0.7 nM |
| COc1cc2nc(-c3nnc4ccc([C@@H](N5C[C@@H](N)[C@H](F)C5)C(F)(F)F)cn34)ccc2cc1F [Example 211, (3R,4R)-4-fluoro-1-((R)-2,2,2-trifluoro-1-(3-(6-fluoro-7-methoxyquinolin-2-yl)-[1,2,4]triazolo[4,3-a]pyridin-6-yl)ethyl)pyrrolidin-3-amine dihydrochloride] | 0.52 nM | 645 nM | 4 nM |
| COCCc1cccc2ccc(-c3nnc4ccc([C@@H](N5CC[C@H](N)C5)C(F)(F)F)cn34)nc12 [Example 111, (S)-1-((R)-2,2,2-trifluoro-1-(3-(8-(2-methoxyethyl)quinolin-2-yl)-[1,2,4]triazolo[4,3-a]pyridin-6-yl)ethyl)pyrrolidin-3-amine dihydrochloride] | 0.07 nM | 52 nM | 1 nM |
| CCOc1cc2nc(-c3nnc4ccc([C@@H](N5CC[C@@H](CN)C5)C(F)(F)F)cn34)ccc2cc1F [Example 279, ((S)-1-((R)-1-(3-(7-ethoxy-6-fluoroquinolin-2-yl)-[1,2,4]triazolo[4,3-a]pyridin-6-yl)-2,2,2-trifluoroethyl)pyrrolidin-3-yl)methanamine hydrochloride] | 0.96 nM | 431 nM | 3.1 nM |
| CCc1cccc2ccc(-c3nnc4ccc([C@@H](N5C[C@@H](O)[C@H](O)C5)C(F)(F)F)cn34)nc12 [Example 73, (3R,4R)-1-((R)-1-(3-(8-ethylquinolin-2-yl)-[1,2,4]triazolo[4,3-a]pyridin-6-yl)-2,2,2-trifluoroethyl)pyrrolidine-3,4-diol] | 0.17 nM | > 100 nM | 32 nM |
| COCCOc1ccc2ccc(-c3nnc4ccc([C@@H](N5CC[C@H](N)C5)C(F)(F)F)cn34)nc2c1C1CC1 [Example 152, (S)-1-((R)-1-(3-(8-cyclopropyl-7-(2-methoxyethoxy)quinolin-2-yl)-[1,2,4]triazolo[4,3-a]pyridin-6-yl)-2,2,2-trifluoroethyl)pyrrolidin-3-amine dihydrochloride] | 0.25 nM | 42 nM | 0.3 nM |
| COC[C@@H](C)Oc1cc2nc(-c3nnc4ccc([C@@H](N5CC[C@H](N)C5)C(F)(F)F)cn34)ccc2cc1F [Example 160, (S)-1-((R)-2,2,2-trifluoro-1-(3-(6-fluoro-7-((R)-1-methoxypropan-2-yloxy)quinolin-2-yl)-[1,2,4]triazolo[4,3-a]pyridin-6-yl)ethyl)pyrrolidin-3-amine dihydrochloride] | 0.16 nM | 46 nM | 0.4 nM |
| COc1cccc2ccc(-c3nnc4ccc([C@@H](N5CC[C@H](N)C5)C(F)(F)F)cn34)nc12 [Example 9, (S)-1-((R)-2,2,2-trifluoro-1-(3-(8-methoxyquinolin-2-yl)-[1,2,4]triazolo[4,3-a]pyridin-6-yl)ethyl)pyrrolidin-3-amine dihydrochloride] | 0.68 nM | 403 nM | 4.2 nM |
| CC(C)Oc1cccc2ccc(-c3nnc4ccc([C@@H](N5CC[C@](N)(CF)C5)C(F)(F)F)cn34)nc12 (single isomer, unassigned) [Example 155, dihydrochloride] | 0.34 nM | 45 nM | 1.3 nM |
| CC(C)(C)c1cccc2ccc(-c3nnc4ccc([C@H](N5CC[C@@H](O)C5)C(F)(F)F)cn34)nc12 [Example 104] | 0.17 nM | > 100 nM | 12 nM |
| COc1cccc2ccc(-c3nnc4ccc(C(N5CCCC5)C(F)(F)F)cn34)nc12 (stereo not drawn) [Example 6, 8-methoxy-2-(6-(2,2,2-trifluoro-1-(pyrrolidin-1-yl)ethyl)-[1,2,4]triazolo[4,3-a]pyridin-3-yl)quinoline] | 11.1 nM | > 1000 nM | > 100 nM |
| N[C@@H]1CCN([C@@H](c2ccc3nnc(-c4ccc5cccc(C6CC6)c5n4)n3c2)C(F)(F)F)C1 [Example 56, (R)-1-((S)-1-(3-(8-cyclopropylquinolin-2-yl)-[1,2,4]triazolo[4,3-a]pyridin-6-yl)-2,2,2-trifluoroethyl)pyrrolidin-3-amine] | 0.14 nM | 16 nM | 2.4 nM |
| COCCOc1c(F)ccc2ccc(-c3nnc4ccc([C@@H](N5CC[C@H](N)C5)C(F)(F)F)cn34)nc12 [Example 108, (S)-1-((R)-2,2,2-trifluoro-1-(3-(7-fluoro-8-(2-methoxyethoxy)quinolin-2-yl)-[1,2,4]triazolo[4,3-a]pyridin-6-yl)ethyl)pyrrolidin-3-amine hydrochloride] | 0.49 nM | > 100 nM | 4.7 nM |
| N[C@H]1CCN([C@H](c2ccc3nnc(-c4ccc5ccc(CCO)cc5n4)n3c2)C(F)(F)F)C1 [Example 265, 2-(2-(6-((R)-1-((S)-3-aminopyrrolidin-1-yl)-2,2,2-trifluoroethyl)-[1,2,4]triazolo[4,3-a]pyridin-3-yl)quinolin-7-yl)ethanol dihydrochloride] | 0.53 nM | > 1000 nM | 1.3 nM |
